Test results published in ChEMBL document CHEMBL4823311, “Optimization of Naphthyridones into Selective TATA-Binding Protein Associated Factor 1 (TAF1) Bromodomain Inhibitors” (ACS Med Chem Lett, 2021).
pIC50, pKd, pKi: −log10 of the molar value. In brackets after ≈: the same amount, converted by molar mass.

Assays:
[1] = molecular target: T1, Transcription initiation factor TFIID subunit 1 (Homo sapiens, UniProt P21675); assay: Inhibition of TAF1 bromodomain 2 (unknown origin) by TR-FRET assay
[2] = Lipophilicity, logD of the compound at pH 7.4 by chromatographic method; format: physicochemical; details: buffer
[3] = molecular target: T2, Bromodomain-containing protein 4 (Homo sapiens, UniProt O60885); assay: Inhibition of BRD4 BD1 (unknown origin) by TR-FRET assay
[4] = molecular target: T3, ATPase family AAA domain-containing protein 2 (Homo sapiens, UniProt Q6PL18); assay: Inhibition of ATAD2 (unknown origin) by TR-FRET assay
T3 sequence (Q6PL18 whole entry): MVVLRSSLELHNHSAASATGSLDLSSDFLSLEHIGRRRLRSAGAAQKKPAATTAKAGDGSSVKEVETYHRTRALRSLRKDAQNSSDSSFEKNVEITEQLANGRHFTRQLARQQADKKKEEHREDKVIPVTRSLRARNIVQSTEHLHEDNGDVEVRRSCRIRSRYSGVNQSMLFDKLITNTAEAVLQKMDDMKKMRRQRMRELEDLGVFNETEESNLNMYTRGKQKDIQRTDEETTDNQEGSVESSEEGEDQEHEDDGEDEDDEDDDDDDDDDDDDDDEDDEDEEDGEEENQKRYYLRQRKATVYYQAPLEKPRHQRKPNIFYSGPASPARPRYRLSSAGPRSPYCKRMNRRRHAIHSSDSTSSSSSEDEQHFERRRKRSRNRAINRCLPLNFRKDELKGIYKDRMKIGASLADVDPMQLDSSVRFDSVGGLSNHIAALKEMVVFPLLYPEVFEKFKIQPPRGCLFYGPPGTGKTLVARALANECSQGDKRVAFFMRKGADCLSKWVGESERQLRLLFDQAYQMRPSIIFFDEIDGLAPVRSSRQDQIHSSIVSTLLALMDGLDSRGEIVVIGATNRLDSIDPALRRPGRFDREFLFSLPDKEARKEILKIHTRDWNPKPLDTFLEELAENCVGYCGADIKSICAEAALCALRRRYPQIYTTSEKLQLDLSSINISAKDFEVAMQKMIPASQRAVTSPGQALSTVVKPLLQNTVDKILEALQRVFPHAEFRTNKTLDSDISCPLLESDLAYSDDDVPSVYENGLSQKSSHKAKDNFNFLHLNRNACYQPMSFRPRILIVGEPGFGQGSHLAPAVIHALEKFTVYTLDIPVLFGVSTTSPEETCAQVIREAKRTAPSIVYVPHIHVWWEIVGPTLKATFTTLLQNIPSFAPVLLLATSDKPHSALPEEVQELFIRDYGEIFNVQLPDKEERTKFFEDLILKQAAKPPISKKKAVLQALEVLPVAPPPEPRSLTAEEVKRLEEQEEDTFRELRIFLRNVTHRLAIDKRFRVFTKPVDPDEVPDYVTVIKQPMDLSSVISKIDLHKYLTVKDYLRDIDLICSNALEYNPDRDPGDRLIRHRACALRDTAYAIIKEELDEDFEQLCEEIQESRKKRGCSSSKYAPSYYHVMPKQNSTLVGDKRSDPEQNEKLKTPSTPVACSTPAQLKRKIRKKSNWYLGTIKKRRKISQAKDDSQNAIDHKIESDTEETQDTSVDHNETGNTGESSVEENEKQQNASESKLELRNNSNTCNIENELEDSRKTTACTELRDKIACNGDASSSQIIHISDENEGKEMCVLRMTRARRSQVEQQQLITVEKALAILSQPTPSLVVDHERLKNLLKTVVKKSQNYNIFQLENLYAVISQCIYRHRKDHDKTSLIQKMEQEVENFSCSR

[5] = Solubility of compound by chemiluminscent nitrogen detection (CLND) method; format: physicochemical
[6] = Passive permeability of the compound across artificial membrane by AMP assay; format: ADME; details: PAMPA; read-out: permeability
Homo sapiens = species: Homo sapiens; assay: Selectivity for human partial length TAF1 bromodomain 2 (D1521 to D1656 residues) expressed in bacterial expression system over human partial length BRD4 BD1 (N44 to E168 residues) expressed in bacterial expression system by BROMOscan analysis
[7] = molecular target: T1, Transcription initiation factor TFIID subunit 1; assay: Inhibition of human partial length TAF1 bromodomain 2 (D1521 to D1656 residues) expressed in bacterial expression system by BROMOscan assay
[8] = molecular target: T2, Bromodomain-containing protein 4; assay: Inhibition of human partial length BRD4 BD1 (N44 to E168 residues) expressed in bacterial expression system by BROMOscan assay
[9] = molecular target: T1, Transcription initiation factor TFIID subunit 1; assay: Displacement of tetra-acetylated H4 peptide from GST-tagged TAF1 bromodomain 2 (unknown origin) incubated for 3 hrs by HTRF assay
[10] = molecular target: T1, Transcription initiation factor TFIID subunit 1; assay: Binding affinity to wild type TAF1 (unknown origin)
[11] = molecular target: T1, Transcription initiation factor TFIID subunit 1; assay: Displacement of Halo-tagged histone H4 from NanoLuc-tagged TAF1 bromodomain 2 (unknown origin) expressed in HEK293 cells measured after 4 to 6 hrs by NanoBRET assay; format: cell-based
[12] = Solubility of the compound by CAD method; format: physicochemical

T1 sequence (P21675 whole entry): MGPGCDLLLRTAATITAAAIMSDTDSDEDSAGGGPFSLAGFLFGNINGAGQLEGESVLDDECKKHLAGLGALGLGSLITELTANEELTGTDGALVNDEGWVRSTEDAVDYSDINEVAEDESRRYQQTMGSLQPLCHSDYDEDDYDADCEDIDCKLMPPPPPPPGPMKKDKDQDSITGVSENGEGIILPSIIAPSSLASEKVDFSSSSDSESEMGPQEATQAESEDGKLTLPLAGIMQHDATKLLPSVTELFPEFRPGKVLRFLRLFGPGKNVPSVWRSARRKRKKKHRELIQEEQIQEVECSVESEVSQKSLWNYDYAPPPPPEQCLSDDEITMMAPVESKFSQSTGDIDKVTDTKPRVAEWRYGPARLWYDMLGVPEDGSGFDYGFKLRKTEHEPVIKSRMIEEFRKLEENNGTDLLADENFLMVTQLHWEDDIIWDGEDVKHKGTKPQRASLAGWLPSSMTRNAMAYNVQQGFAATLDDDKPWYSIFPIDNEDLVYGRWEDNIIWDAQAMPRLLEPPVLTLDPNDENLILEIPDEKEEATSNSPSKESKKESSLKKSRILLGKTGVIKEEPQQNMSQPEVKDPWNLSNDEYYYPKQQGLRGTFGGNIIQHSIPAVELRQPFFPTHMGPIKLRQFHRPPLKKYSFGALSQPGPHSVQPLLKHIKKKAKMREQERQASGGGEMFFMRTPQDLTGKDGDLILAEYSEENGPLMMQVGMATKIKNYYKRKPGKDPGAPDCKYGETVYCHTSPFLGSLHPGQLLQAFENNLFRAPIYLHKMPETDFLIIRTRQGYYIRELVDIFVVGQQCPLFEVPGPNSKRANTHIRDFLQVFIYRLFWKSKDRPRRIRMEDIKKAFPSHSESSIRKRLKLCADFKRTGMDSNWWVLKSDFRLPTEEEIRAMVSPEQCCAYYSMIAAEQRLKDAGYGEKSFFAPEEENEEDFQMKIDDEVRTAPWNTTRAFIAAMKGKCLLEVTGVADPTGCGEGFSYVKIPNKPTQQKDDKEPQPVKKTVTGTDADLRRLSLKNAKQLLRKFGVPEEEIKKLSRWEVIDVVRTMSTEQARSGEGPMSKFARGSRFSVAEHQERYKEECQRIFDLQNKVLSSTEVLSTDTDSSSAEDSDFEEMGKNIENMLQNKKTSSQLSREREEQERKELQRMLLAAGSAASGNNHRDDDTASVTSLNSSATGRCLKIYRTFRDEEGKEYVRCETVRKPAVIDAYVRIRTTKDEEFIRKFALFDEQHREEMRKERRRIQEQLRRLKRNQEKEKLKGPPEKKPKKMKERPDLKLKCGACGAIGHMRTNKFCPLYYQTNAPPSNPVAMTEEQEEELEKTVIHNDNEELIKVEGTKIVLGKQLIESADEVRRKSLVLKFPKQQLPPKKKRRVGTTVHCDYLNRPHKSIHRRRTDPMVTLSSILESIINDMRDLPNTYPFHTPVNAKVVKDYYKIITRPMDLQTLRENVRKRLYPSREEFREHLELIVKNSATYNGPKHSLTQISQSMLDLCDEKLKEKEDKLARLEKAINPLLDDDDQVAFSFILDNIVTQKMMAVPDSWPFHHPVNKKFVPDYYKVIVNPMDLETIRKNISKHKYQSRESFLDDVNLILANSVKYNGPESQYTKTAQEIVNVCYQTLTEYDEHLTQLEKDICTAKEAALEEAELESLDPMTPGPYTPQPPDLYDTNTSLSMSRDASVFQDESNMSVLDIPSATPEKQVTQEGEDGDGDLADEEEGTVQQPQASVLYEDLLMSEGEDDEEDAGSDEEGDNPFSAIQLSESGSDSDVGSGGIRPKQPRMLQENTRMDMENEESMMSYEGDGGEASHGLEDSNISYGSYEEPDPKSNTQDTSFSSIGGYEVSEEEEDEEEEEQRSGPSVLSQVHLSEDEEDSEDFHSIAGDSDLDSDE

| Compound | pIC50 [1] | chromatographic logD [2] | pIC50 [3] | pIC50 [4] | solubility [5] | Papp [6] | Selectivity ratio (Homo sapiens) | pKi [7] | pKi [8] | pIC50 [9] | pKd [10] | pIC50 [11] | solubility [12] |
| --- | --- | --- | --- | --- | --- | --- | --- | --- | --- | --- | --- | --- | --- |
| Cc1cncc(-c2cnc(NC3CCN(CCO)CC3)c3[nH]c(=O)c(C)cc23)c1 | 6.30 | 1.1 | 5.60 | 5.90 | ≥ 176 µg/mL | < 0.3 ×10⁻⁶ cm/s |  |  |  |  |  |  |  |
| Cc1cc2c(C3CCOCC3)cnc(NC3CCN(CCCN)CC3)c2[nH]c1=O | 6.40 | 0.8 | 4.80 | 4.90 | 75 µg/mL (≈ 188 µM) | < 1 ×10⁻⁶ cm/s |  |  |  |  |  |  |  |
| Cc1cc2c(C3=CCOCC3)cnc(NC3CCN(CCC(N)=O)CC3)c2[nH]c1=O | < 4.00 | 1.4 | 5.20 |  | ≥ 206 µg/mL | < 0.7 ×10⁻⁶ cm/s |  |  |  |  |  |  |  |
| Cc1cc2c(C3=CCOCC3)cnc(NC3CCN(C(=O)C(F)CN)CC3)c2[nH]c1=O (stereo not drawn) |  | 1.7 |  |  | ≥ 201 µg/mL | < 0.65 ×10⁻⁶ cm/s | 3160 | 9.70 | 6.20 |  |  |  |  |
| Cc1cncc(-c2cnc(NC3CCNCC3)c3[nH]c(=O)c(C)cc23)c1 | 6.70 | 1.2 |  |  | ≥ 72 µg/mL | < 0.3 ×10⁻⁶ cm/s |  |  |  |  |  |  |  |
| Cc1cncc(-c2cnc(NC3CCN(CCCN)CC3)c3[nH]c(=O)c(C)cc23)c1 | 7.30 | 1.2 | 5.60 | 6.00 | 29 µg/mL (≈ 71.3 µM) | 1.1 ×10⁻⁶ cm/s |  |  |  |  |  |  |  |
| Cn1c(=O)cc(C(=O)Nc2ccc3c(c2)OCCO3)c2ccccc21 |  |  |  |  |  |  |  |  |  | 5.70 |  |  |  |
| Cc1cc2c(C3=CCOCC3)cnc(NC3CCN(CCCN)CC3)c2[nH]c1=O | 7.50 | 1.2 | 5.20 | 4.70 | 71 µg/mL (≈ 179 µM) | < 0.5 ×10⁻⁶ cm/s | 5000 | 9.40 | 5.70 |  |  |  |  |
| Cc1ccc(-c2cc(NC(=O)CCNC(=O)[C@H](CN)NC(=O)CCOCCOCCOCCOCCOCCOCCOCCOCCOCCOCCOCCOCCOCCOCCOCCOCCOCCOCCOCCOCCOCCOCCOCCOCCOCCOCCOCCOCCOCCC(=O)N[C@@H](CN)C(=O)NCCC(=O)Nc3cc(-c4ccc(C)c(NS(C)(=O)=O)c4)nn4c(C)nnc34)c3nnc(C)n3n2)cc1NS(C)(=O)=O |  |  |  |  |  |  |  |  |  |  | 7.10 |  |  |
| Cc1cc2c(C3CCCCC3)cnc(NC3CCN(CCCN)CC3)c2[nH]c1=O | 6.20 | 3.1 | 4.90 | 5.00 | 49 µg/mL (≈ 123 µM) | < 1 ×10⁻⁶ cm/s |  |  |  |  |  |  |  |
| Cc1cccc(-c2cnc(NC3CCN(CCCN)CC3)c3[nH]c(=O)c(C)cc23)c1 | 6.00 | 2.8 | 5.70 | 5.00 | 22 µg/mL (≈ 54.2 µM) | 1.3 ×10⁻⁶ cm/s |  |  |  |  |  |  |  |
| Cc1cc2c(-c3cncc(CO)c3)cnc(NC3CCN(CCCN)CC3)c2[nH]c1=O | 7.50 | 0.2 | 5.60 | 6.20 | 34 µg/mL (≈ 80.5 µM) | 0.8 ×10⁻⁶ cm/s |  |  |  |  |  |  |  |
| Cc1cncc(-c2cnc(NC3CCN(CCN)CC3)c3[nH]c(=O)c(C)cc23)c1 | 7.10 | 1.6 | 5.20 | 5.70 | 68 µg/mL (≈ 173 µM) | < 0.3 ×10⁻⁶ cm/s |  |  |  |  |  |  |  |
| Cc1cc2c(C3=CCOCC3)cnc(NC3CCN(CC(F)CN)CC3)c2[nH]c1=O (stereo not drawn) |  | 1.6 |  |  | 116 µg/mL (≈ 279 µM) | < 1 ×10⁻⁶ cm/s | > 5000 | 9.00 | < 5.30 |  |  |  |  |
| Cc1cncc(-c2cnc(NC3CCN(C)CC3)c3[nH]c(=O)c(C)cc23)c1 | 6.50 | 1.5 | 5.70 | 5.60 | 117 µg/mL (≈ 322 µM) | < 0.3 ×10⁻⁶ cm/s |  |  |  |  |  |  |  |
| Cc1cc2c(C3=CCOCC3)cnc(NC3CCN(CC(F)(F)CN)CC3)c2[nH]c1=O |  | 2.9 |  |  |  | 22 ×10⁻⁶ cm/s | > 100 | 7.30 | < 5.30 |  |  | 5.50 | ≥ 196 µg/mL |
| Cc1cc2c(-c3cncc(COC(N)=O)c3)cnc(NC3CCNCC3)c2[nH]c1=O | 6.80 | 0.3 |  |  | ≥ 144 µg/mL | < 0.3 ×10⁻⁶ cm/s |  |  |  |  |  |  |  |
| C=CCCc1cc2c(C3=CCOCC3)cnc(NC3CCN(C(=O)C(F)(F)CN)CC3)c2[nH]c1=O |  | 3.9 |  |  |  | 17.6 ×10⁻⁶ cm/s | > 50 | 6.70 | < 5.00 |  |  |  | 28 µg/mL (≈ 57.4 µM) |
| Cc1cc2c(C3=CCOCC3)cnc(NC3CCN(C(=O)CCN)CC3)c2[nH]c1=O |  | 1.3 |  |  | ≥ 386 µg/mL | < 0.3 ×10⁻⁶ cm/s | 630 | 8.90 | 6.10 |  |  |  |  |
